Measurements from patent publication US20230293483A1, “COMPOSITION FOR PREVENTING OR TREATING LIVER DISEASE, COMPRISING ICARITIN AND QUERCETIN” (INDUSTRY-ACADEMIC COORPERATION FOUNDATION DAEGU HAANY …, priority 2020, published 2023).

System: HepG2 cells
Assay: Cell viability test (MTT assay) against oxidative stress induced by AA+iron
Format: cell-based, human
Settings: for hepatocellular protective effect (cell viability): AA+iron in HepG2, compared with genistein and luteolin at the same concentration, FIG. 1
Description: HepG2 cell, a human-derived liver parenchymal cell line, was purchased from the American Type Culture Collection (ATCC, Rockville, MD, USA). Dulbecco's modified Eagle's medium (DMEM; Gibco) mixed with heat-treated 10% fetal bovine serum (FBS; Gibco), 100 units/ml of penicillin, and 100 μg/mL of streptomycin (Gibco) was used to culture HepG2 cells in an incubator maintained at 37° C. and 5% CO2 conditions. Cells were cultured in a 100 mm dish to a confluence of 80% or more, and subcultured twice a week at a ratio of 1:4. After serum-starvation for 12 hours, drugs were treated at different concentrations, and 1 hour later, 10 μM of AA was treated for 12 hours, and then treated with 5 μM of iron, and further cultured for 5 hours.
Cell viability was measured by MTT assay. HepG2 cells were dispensed in 0.5 mL/well at a concentration of 2×10^5 cells/well in a 24-well plate, and then cultured for 24 hours. After serum was depleted for 12 hours, the drug was treated for 1 hour, and then 10 μM of AA was treated for 12 hours, and 5 μM of iron was added and cultured for 5 hours. Herein, 300 μL of MTT 0.5 mg/mL per well was treated and reacted at 37° C. for 2 hours. After carefully removing the medium and dissolving formazan crystals produced by reducing MTT with dimethylsulfoxide (DMSO), absorbance was measured at 570 nm using a microplate measuring instrument (Tecan Infinite M200 PRO, USA).
In addition, in order to identify the cell viability according to the mixed use of icaritin and quercetin according to the results of FIG. 1, HepG2 cells were dispensed in 2×10^5 cells/well into a 24-well plate and cultured for 24 hours. After treatment for 1 hour at the concentrations shown in Table 1 below, 10 μM of AA was treated for 12 hours, and 5 μM of iron was added and cultured for 5 hours. […] The absorbance was measured at 570 nm using a microplate measuring instrument (Tecan Infinite M200 PRO, USA).

Row | SMILES | hepatocellular protective effect (cell viability) | cell viability (HepG2, drug 1 h, then 10 μM AA 12 h + 5 μM iron 5 h, MTT, FIG. 2)
1 | COc1ccc(-c2oc3c(CC=C(C)C)c(O)cc(O)c3c(=O)c2O)cc1 [Comparative Example 1, icaritin] | most significant hepatocellular protective effects | –
2 | O=c1c(O)c(-c2ccc(O)c(O)c2)oc2cc(O)cc(O)c12 [Comparative Example 2, quercetin] | most significant hepatocellular protective effects | about 47.9±0.4%
